Results taken from patent US8808728B2, “Feed additive for laying hen and feed containing the same” (Unitika Ltd., priority 2004, dated 2014).
Where two headings read alike, the source gives them in different places.

How the values were obtained:
[1] = Solubility in water of calcium salts; assay type: physicochemical
Description: The solubility in water of the calcium lactobionate thus obtained was compared with those of other calcium salts (manufactured by Wako Pure Chemical Industries).

laying hens [2] = assay: Test Example 4: feeding of feeds of Examples 12 to 14 to laying hens aged 500 days for 60 days; assay type: in vivo; settings: Boris Brown hens aged 500 days, fed 60 days
Method: (§1) Ten laying hens aged 470 days (laying white leghorn hens (Julia)) were fed with each of the feeds prepared in Examples 2 to 5 for 60 days and the egg-laying rate, the egg breakage and egg cracking rate and eggshell strength were measured. The egg-laying rate was determined in accordance with the following Equation 1, while the egg breakage and egg cracking rate were determined in accordance with the following Equation 2. Eggshell strength was determined by horizontally placing an egg and measuring the bursting strength with a rheometer. A feed containing no feed additive for laying hens was also prepared as a control. […] Egg-laying rate=(total number of eggs in each test lot/total number of eggs in control lot)×100 [Equation 1] Egg breakage/cracking rate=(number of broken or cracked eggs/total number of eggs yield)×100 [Equation 2]
Four laying hens aged 500 days (Boris Brown) were fed with each of the feeds prepared in Examples 12 to 14 for 60 days and the egg-laying rate and the eggshell strength were measured in the same manner as in Examples 2 to 5. […]

laying hens [3] = assay type: in vivo; settings: feed without calcium carbonate and di-lime phosphate; hens aged 470 days, fed 60 days
Method: as §1
Ten laying hens aged 470 days (laying white leghorn hens (Julia)) were fed with each of the feeds prepared in Examples 10 and 11 for 60 days and the egg-laying rate, the egg breakage and egg cracking rate and eggshell strength were measured in the same manner as in Examples 2 to 5. […]

| Solubilities in water [1] | Compound | Solubilities in water ([1]; water) | Eggshell strength (laying hens [2]) | Eggshell strength (laying hens [3]) |
| --- | --- | --- | --- | --- |
|  | O=C([O-])[C@H](O)[C@@H](O)[C@H](O)[C@H](O)CO.O=C([O-])[C@H](O)[C@@H](O)[C@H](O)[C@H](O)CO.[Ca+2] [Ca gluconate, reference compound] | 3.8 g/100 mL |  |  |
| >40 g/100 mL | O=C([O-])[C@H](O)[C@@H](O)[C@H](O[C@@H]1O[C@H](CO)[C@H](O)[C@H](O)[C@H]1O)[C@H](O)CO.O=C([O-])[C@H](O)[C@@H](O)[C@H](O[C@@H]1O[C@H](CO)[C@H](O)[C@H](O)[C@H]1O)[C@H](O)CO.[Ca+2] [Ca lactobionate, calcium lactobionate] |  | eggshell reinforcing effect could be obtained | showed an effect of reinforcing eggshells |
